Test results taken from ChEMBL document CHEMBL1781914, “Syntheses and initial evaluation of a series of indolo-fused heterocyclic inhibitors of the polymerase enzyme (NS5B) of the hepatitis C virus” (Bioorg Med Chem Lett, 2011).

Columns and labels:
[1] = Oral bioavailability in rat; assay type: ADME, organism-based; details: in vivo
[2] = AUC in iv and po dosed rat; assay type: ADME, organism-based; details: plasma
[3] = Drug clearance in rat at 2 mg/kg, iv; assay type: ADME, organism-based; parameters: dose 2 mg/kg, route intravenous; details: in vivo
Hepatitis C virus [4] = experiment: Inhibition of HCV genotype 1b NS5B polymerase expressed in Escherichia coli BL21(DE3) after 60 mins by FRET assay; parameters: species or system Hepatitis C virus subtype 1b; details: BL21-DE3, 1 h
Hepatitis C virus [5] = experiment: Antiviral activity against HCV infected in human Huh7 cells assessed as inhibition of viral replication by luciferase assay; assay type: functional, organism-based, Hepacivirus hominis; details: Huh-7

| SMILES | bioavailability [1] [%] | AUC [2] [µM·h] | clearance [3] [mL/min/kg] | IC50 (Hepatitis C virus [4]) [nM] | EC50 (Hepatitis C virus [5]) [nM] |
| --- | --- | --- | --- | --- | --- |
| O=C(O)/C=C/c1ccc(OC(=O)C2(NC(=O)c3ccc4c(C5CCCCC5)c5n(c4c3)CCCc3ccccc3-5)CCCC2)cc1 | 8 | 0.28 | 250 | 30 | 20 |
| O=C(O)/C=C/c1ccc(OC(=O)C2(NC(=O)c3ccc4c(C5CCCCC5)c5n(c4c3)CCOc3ccccc3-5)CCCC2)cc1 | 5 | 0.79 | 17 | 30 | 10 |
| O=C(O)/C=C/c1ccc(OC(=O)C2(NC(=O)c3ccc4c(C5CCCCC5)c5n(c4c3)CC(=O)Nc3ccccc3-5)CCCC2)cc1 | 3 | 0.66 | 13 | 20 | 10 |
| O=C(O)/C=C/c1ccc(OC(=O)C2(NC(=O)c3ccc4c(C5CCCCC5)c5n(c4c3)CCCCNc3ccccc3-5)CCCC2)cc1 | 12.3 | 3.61 | 8.7 | 90 | 20 |

Further lines, results first:

| bioavailability [1] [%] | AUC [2] [µM·h] | clearance [3] [mL/min/kg] | IC50 (Hepatitis C virus [4]) [nM] | EC50 (Hepatitis C virus [5]) [nM] | SMILES |
| --- | --- | --- | --- | --- | --- |
| 17.6 |  |  | 70 | 240 | O=C1Cn2c(c(C3CCCCC3)c3ccc(C(=O)O)cc32)-c2ccccc2N1 |
|  |  |  | 600 | 270 | O=C(O)c1ccc2c(C3CCCCC3)c3n(c2c1)CCCCNc1ccccc1-3 |
|  |  |  | 840 | 700 | O=C(O)c1ccc2c(C3CCCCC3)c3n(c2c1)CCCc1ccccc1-3 |
|  |  |  | 690 | 590 | O=C(O)c1ccc2c(C3CCCCC3)c3n(c2c1)CCOc1ccccc1-3 |
